According to patent publication US20140205681A1, “HYDROGEN-BOND SURROGATE PEPTIDES AND PEPTIDOMIMETICS FOR p53 REACTIVATION” (New York University, priority 2013, published 2014):

Legend:
[1] = test system: UMSCC47 cells; test: Cell proliferation (MTT); type: cell-based, human
Method: (§1) Cell proliferation was assessed using the MTT reagent (Roche Molecular Biochemicals, Nutley, N.J.) to detect metabolic active cells. Absorbance was measured at 570 nm in the Spectra Max 190 ELISA reader (Molecular Devices, Sunnyvale, Calif.) after overnight incubation. For clonogenic survival, 200 cells per well were plated in complete growth media and allowed to grow until visible colonies were formed (14 days). Cell colonies were fixed with cold methanol, stained with 0.25% crystal violet in 25% methanol, washed, and air dried. For apoptosis, cells were harvested, washed with cold PBS, and co-stained with Annexin V and propidium iodide according to the manufacturer's protocol (ApoAlert Annexin V-FITC Apoptosis Kit; Clontech). Apoptotic cells were analyzed using BD FACS Calibur (BD Biosciences Corporation, Franklin Lakes, N.J.) at The Ohio State University Comprehensive Cancer Center Analytical Cytometry Core.

[2] = test system: p53; test: p53 transcriptional activity (Cignal p53 Firefly/Renilla luciferase reporter); type: cell-based, human
Method: Cells were transfected with 100 ng of Cignal p53 reporter (SABiosciences, Valencia, Calif.) using Lipofectamine 2000. Cignal p53 reporter contains tandem repeats of the p53 consensus transcriptional response element. After 48 hours, cells were washed with cold PBS, lysed in passive lysis buffer (Promega), and measured for Firefly/Renilla dual luciferase activities in a luminometer using the Dual-Light System (Applied Biosystems, Foster City, Calif.). […] to control for transfection efficiency. A modification to the protocol was used for compound treatment. UMSCC47 cells were transfected with 100 ng of Cignal p53 reporter. After 24 hours, cells were treated with vehicle, CH1iB (10 μM), cis-platinum (10 μM), or combination of CH1iB (10 μM) and cis-platinum (10 μM) and measured for Firefly/Renilla dual luciferase activities 24 hours post-treatment.

[3] = test system: UMSCC47 cells; test: Tumorsphere formation; type: cell-based, human; conditions: overexpression of CH1, UMSCC47 cells
Method: Cells were harvested and seeded in a serum-free defined medium consisting of KSF medium supplemented with epidermal growth factor, basic fibroblast growth factor, insulin, and hydrocortisone in low-attachment plates (Corning Incorporated, Corning, N.Y.) for tumorspheres. Tumorsphere formation efficiency was calculated as the number of tumorspheres ([…] in diameter) formed in 7 days divided by the original number of cells seeded. Tumorsphere diameter was measured using NIS-Elements software.

[4] = molecular target: T1, HPV16 E6-p300 (Homo sapiens, UniProt Q09472); test: Immunoprecipitation of HPV16 E6-p300 association; type: cell-based; conditions: exogenous CH1; UMSCC47 and UPCI:SCC090 cells
T1 construct: Cell lysates were extracted, immunoprecipitated with anti-p300 antibody, and immunoblotted with anti-E6 antibody; endogenous in cells; host or cells: UMSCC47 (HPV16-positive HNSCC)
Method: Cells were lysed with NP buffer [50 mM Tris (pH 8.0), 150 mM NaCl, 0.5% deoxycholate, 0.1% SDS, and 1.0% NP-40] containing 1× Protease Inhibitor Cocktail (Roche, Switzerland) at 4° C. with gentle rocking for 15 min. The supernatant was pre-cleared to block nonspecific binding with 50 μL protein A/G Agarose beads (Pierce Biotechnology) that had been pre-washed with NP buffer before use. Equal amounts of anti-E6 antibody (Abcam), anti-p300 antibody (Millipore), or IgG antibody (Cell Signaling) were added to the respective samples. After 4 hours incubation at 4° C., 50 μL pre-washed protein A/G-agarose beads were added to each tube and immunoprecipitation was performed by rocking overnight at 4° C. The immunoprecipitated complexes were washed with NP buffer and then eluted using 2×SDS sample buffer. Eluted sample and 10% of input were resolved by SDS-PAGE for Western blot analysis with anti-E6, anti-p300, or anti-V5 antibodies.

[5] = test system: p300, p53, p21, miR-34a, miR-200c; test: Quantitative real-time PCR of p300, p53, p21, miR-34a and miR-200c expression; type: cell-based, human
Method: Cells were extracted for total RNA using the TRIzol® reagent (Invitrogen) or TaqMan PreAmp Cells-to-CT kit (Applied Biosystems). Expression of p300, p53, p21, miR-34a and miR-200c were determined using the Applied Biosystems 7900HT Fast Real-Time PCR System with validated TaqMan gene expression assays (Applied Biosystems). p53, p300, and p21 expression were normalized to GADPH and miR-34a and miR-200c expression were normalized to RNU44 using the ΔΔCt method.

[6] = test system: UMSCC74A cells; test: Cell proliferation (MTT); type: cell-based, human; conditions: overexpression of CH1, UMSCC74A cells
Method: as §1

[7] = test system: UPCI:SCC090 cells; test: Cell proliferation (MTT); type: cell-based, human; conditions: UPCI:SCC090/CH1 cells
Method: as §1

[8] = molecular target: T2, MDM2-p300 (Homo sapiens, UniProt Q09472); test: Immunoprecipitation of MDM2-p300 association; type: cell-based; conditions: introduction of CH1, UMSCC74A cells
T2 construct: Cell lysates were extracted, immunoprecipitated with anti-p300 antibody, and immunoblotted with anti-MDM2; endogenous in cells; host or cells: UMSCC74A (HPV-negative, p53 wildtype HNSCC)

[9] = test system: p53; test: Western blot of total and acetylated[K382] p53 levels; type: cell-based, human
Method: Whole cell lysates were mixed with Laemmli loading buffer, boiled, separated by SDS-PAGE, and transferred to a nitrocellulose membrane. Subsequently, immunoblot analyses were performed using antibodies specific to V5 (Invitrogen), p53 (sc-126, Santa Cruz Biotechnology, Santa Cruz, Calif.), or acetylated[[…]]-p53 (2525, Cell Signaling Technology). The signal was developed using the SuperSignal Western Blotting Kit (Pierce, Rockford, Ill.).

[10] = test system: UMSCC74A cells; test: Clonogenic survival (crystal violet); type: cell-based, human; conditions: overexpression of CH1, UMSCC74A cells
Method: as §1

[11] = test system: UPCI:SCC090 cells; test: Clonogenic survival (crystal violet); type: cell-based, human; conditions: UPCI:SCC090/CH1 cells
Method: as §1

[12] = test system: UMSCC47 cells; test: Clonogenic survival (crystal violet); type: cell-based, human; conditions: UMSCC47/CH1 cells
Method: as §1

[13] = test system: UMSCC47 cells; test: Tumor incidence and growth in athymic nude mice; type: in vivo
Method: After 3 weeks, tumors were measured once a week using a digital caliper and tumor volumes were calculated using the formula d1×d2×d3×0.5236, where “d” represents the three orthogonal diameters. Tumor growth and incidence were monitored for 49 days following tumor cell implantation.

[14] = test system: UMSCC74A cells; test: Apoptosis (Annexin V FACS); type: cell-based, human; conditions: overexpression of CH1, UMSCC74A cells
Method: as §1

[15] = test system: UPCI:SCC090 cells; test: Apoptosis (Annexin V FACS); type: cell-based, human; conditions: CH1 overexpression
Method: as §1

[16] = test system: UMSCC47 cells; test: Apoptosis (Annexin V FACS); type: cell-based, human; conditions: CH1 overexpression
Method: as §1

[17] = test system: UMSCC47 cells; test: ALDH (ALDEFLUOR) and CD44 (FACS) cancer initiating cell markers; type: cell-based, human
Method: Cells were assessed for ALDH activity using the ALDEFLUOR kit according to the manufacturer's protocol (Stem Cell Technologies, British Columbia, Canada). Cells were suspended in ALDEFLUOR assay buffer containing ALDH substrate (bidipy-aminoacetaldehyde, 1 μM per 1×10^6 cells) and incubated for 40 minutes at 37° C. For each experiment, a sample of cells was incubated with 50 mM of diethylaminobenzaldehyde (DEAB), a specific ALDH inhibitor, to serve as the negative control. For CD44 expression, cells were harvested and resuspened in incubation buffer with PE-CD44 antibody (Abcam) or mouse PE-IgG (Abcam) for 50 minutes on ice. Suspensions were centrifuged at 300×g for 5 minutes at 4° C. and resuspend in 0.5 mL of 1% paraformaldehyde solution for analysis. Fluorescence activated cell sorting (FACS) analyses were performed using BD FACS Calibur at The Ohio State University Comprehensive Cancer Center Analytical Cytometry Core.

[18] = CH1 overexpressing UMSCC47 and UPCI:SCC090 cells
[19] = CH1 overexpression, UMSCC47 cells

T2 sequence (Q09472 whole entry): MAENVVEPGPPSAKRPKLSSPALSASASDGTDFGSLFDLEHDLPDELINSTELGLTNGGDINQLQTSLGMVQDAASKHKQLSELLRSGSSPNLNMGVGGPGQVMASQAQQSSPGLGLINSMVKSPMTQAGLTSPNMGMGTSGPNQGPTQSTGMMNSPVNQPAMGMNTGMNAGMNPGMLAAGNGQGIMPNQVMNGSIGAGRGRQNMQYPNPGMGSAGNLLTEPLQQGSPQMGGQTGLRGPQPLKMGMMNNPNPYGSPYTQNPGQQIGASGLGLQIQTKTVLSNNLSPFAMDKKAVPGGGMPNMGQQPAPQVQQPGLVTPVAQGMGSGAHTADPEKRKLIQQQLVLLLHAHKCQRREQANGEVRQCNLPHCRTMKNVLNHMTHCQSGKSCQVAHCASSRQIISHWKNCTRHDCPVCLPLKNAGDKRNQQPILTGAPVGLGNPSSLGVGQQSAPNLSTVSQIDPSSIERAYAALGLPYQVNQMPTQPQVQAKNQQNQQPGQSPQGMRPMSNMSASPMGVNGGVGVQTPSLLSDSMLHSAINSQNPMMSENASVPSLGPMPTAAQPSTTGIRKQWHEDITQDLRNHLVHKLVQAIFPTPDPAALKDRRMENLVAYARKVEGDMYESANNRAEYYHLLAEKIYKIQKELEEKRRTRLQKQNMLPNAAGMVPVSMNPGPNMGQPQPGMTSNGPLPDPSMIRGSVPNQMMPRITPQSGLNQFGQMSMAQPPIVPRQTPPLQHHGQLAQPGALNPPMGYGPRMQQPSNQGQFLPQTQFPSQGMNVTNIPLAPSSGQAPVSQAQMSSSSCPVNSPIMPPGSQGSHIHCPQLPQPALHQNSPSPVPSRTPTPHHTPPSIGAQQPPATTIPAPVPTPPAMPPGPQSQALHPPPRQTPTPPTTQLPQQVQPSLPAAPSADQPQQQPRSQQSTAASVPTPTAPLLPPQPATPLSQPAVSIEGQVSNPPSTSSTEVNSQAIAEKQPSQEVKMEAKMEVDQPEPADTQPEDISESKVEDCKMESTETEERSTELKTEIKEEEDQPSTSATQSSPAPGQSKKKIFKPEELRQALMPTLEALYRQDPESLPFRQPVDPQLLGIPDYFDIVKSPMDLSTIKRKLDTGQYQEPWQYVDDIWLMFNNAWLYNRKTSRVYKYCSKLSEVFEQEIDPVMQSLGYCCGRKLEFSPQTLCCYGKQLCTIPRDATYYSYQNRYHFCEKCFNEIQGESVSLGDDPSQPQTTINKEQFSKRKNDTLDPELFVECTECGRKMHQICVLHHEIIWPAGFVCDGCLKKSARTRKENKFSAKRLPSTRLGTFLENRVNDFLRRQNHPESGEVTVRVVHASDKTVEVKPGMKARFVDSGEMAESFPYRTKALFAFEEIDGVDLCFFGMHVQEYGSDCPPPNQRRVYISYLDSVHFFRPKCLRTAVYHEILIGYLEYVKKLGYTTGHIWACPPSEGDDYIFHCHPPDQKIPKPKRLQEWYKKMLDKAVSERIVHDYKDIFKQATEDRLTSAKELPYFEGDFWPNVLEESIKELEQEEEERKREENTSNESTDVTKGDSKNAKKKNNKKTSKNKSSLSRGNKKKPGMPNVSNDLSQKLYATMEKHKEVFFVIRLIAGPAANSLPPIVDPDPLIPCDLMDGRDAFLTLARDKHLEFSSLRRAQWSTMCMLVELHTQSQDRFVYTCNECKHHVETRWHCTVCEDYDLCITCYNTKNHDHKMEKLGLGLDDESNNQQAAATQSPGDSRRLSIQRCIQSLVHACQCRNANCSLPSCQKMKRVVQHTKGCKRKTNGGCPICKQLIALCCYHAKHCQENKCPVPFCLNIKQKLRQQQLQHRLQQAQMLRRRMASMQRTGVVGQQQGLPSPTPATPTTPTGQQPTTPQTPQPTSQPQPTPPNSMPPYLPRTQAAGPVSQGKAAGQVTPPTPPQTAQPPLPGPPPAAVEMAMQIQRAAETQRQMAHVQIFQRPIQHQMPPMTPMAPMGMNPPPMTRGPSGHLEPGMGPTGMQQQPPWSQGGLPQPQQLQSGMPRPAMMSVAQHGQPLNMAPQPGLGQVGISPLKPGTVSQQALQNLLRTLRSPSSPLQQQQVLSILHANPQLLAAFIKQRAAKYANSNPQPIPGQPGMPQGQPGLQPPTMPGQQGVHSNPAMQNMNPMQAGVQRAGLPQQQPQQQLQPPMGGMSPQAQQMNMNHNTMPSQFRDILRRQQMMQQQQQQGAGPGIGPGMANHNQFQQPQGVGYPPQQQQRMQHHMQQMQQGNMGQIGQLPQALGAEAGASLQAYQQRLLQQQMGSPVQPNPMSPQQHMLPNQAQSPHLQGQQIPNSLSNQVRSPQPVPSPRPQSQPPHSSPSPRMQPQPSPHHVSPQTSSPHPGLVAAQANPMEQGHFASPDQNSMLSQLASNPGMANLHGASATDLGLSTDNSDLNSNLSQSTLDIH
T1 sequence (Q09472 whole entry): as above

In the case of XELA*RAADQ-NH2 [CH1iB-mut], the “effect on anti-proliferative efficacy of cis-platinum” value ([1]; UMSCC47 cells, 10 μM with cis-platinum 10 μM) is reported as “no effect”, the “cell proliferation, single-agent” value ([1]; UMSCC47 cells, 10 μM, 24-72 hours) is reported as “no effect” and the “p53 activity, increase” value ([2]; HPV-positive UMSCC47 cells, 10 μM, 24 hours, vs vehicle) is reported as 14%.

With “CH1: CH1 domain of p300 ectopically expressed from pcDNA3.1/CH1 in stably transfected HNSCC cells” the “tumorsphere diameter, reduced by” value [3] was 25%, the “tumorsphere formation efficiency, inhibited by” value [3] was 42% and the “association between E6 and p300” value [4] was “reduce the association between E6 and p300”. The “miR-34a expression, increased by” value ([5]; UMSCC47/CH1 cells) was 323%, the “miR-200c expression, increased by” value ([5]; UMSCC47/CH1 cells) was 80% and the “p21 expression, increased by” value ([5]; UMSCC47/CH1 cells) was 114%. For the same substance, the “miR-34a expression, increased by” value ([5]; UPCI:SCC090/CH1 cells) was 134%, the “miR-200c expression, increased by” value ([5]; UPCI:SCC090/CH1 cells) was 49% and the “p21 expression, increased by” value ([5]; UPCI:SCC090/CH1 cells) was 39%. The “p53 and p300 expression” value ([5]; overexpression of CH1, UMSCC47 and UPCI:SCC090) was “no effect”, the “cell proliferation, inhibited by” value [6] was 48% and the “cell proliferation, reduced by” value [7] was 11%. For the same substance, the “cell proliferation, reduced by” value ([1]; UMSCC47/CH1 cells) was 20%, the “p53 transcription activity, elevated by” value ([2]; UMSCC47/CH1 cells vs empty vector) was 85% and the “p53 transcription activity, elevated by” value ([2]; UMSCC74A/CH1 vs UMSCC74A/empty cells) was 68%. For the same substance, the “p53 transcription activity, elevated by” value ([2]; UPCI:SCC090/CH1 cells vs empty vector) was 50%, the “interaction between p300 and MDM2” value [8] was “disrupted” and the “acetylated p53” value [9, 18] was “increase”. The “total p53” value [9, 18] was “accumulation”, the “total and acetylated p53” value ([9]; ectopic expression of CH1, HPV-negative UMSCC74A cells) was “increased” and the “clonogenic survival, inhibited by” value [10] was 70%. The “clonogenic survival, reduced by” value [11] was 58%, the “clonogenic survival, reduced by” value [12] was 55% and the tumor incidence ([13]; 3×10^4 UMSCC47/CH1 cells implanted (UMSCC47/empty 50%)) was 0%. For the same substance, the mean tumor volume ([13]; 3×10^5 UMSCC47/CH1 cells implanted (UMSCC47/empty 142 mm^3)) was 67 mm^3, the “tumor incidence vs UMSCC47/empty” value ([13]; 3×10^5 cells implanted in flanks, 49 days) was “the same” and the “apoptosis, increased by” value [14] was 95%. The “apoptosis, increased by” value [15] was 27%, the “apoptosis, increased by” value [16] was 60% and the “ALDH^high population, reduced by” value [17, 19] was 46%. The “CD44^high population, reduced by” value [17, 19] was 31% and the “CD44 levels (FACS), reduced by” value ([17]; UMSCC47/CH1 vs UMSCC47/empty cells) was 33%.
